Experimental data taken from patent publication US20220152067A1, “Cancer Immunotherapy Adjuvant” (lndustry-Academic Cooperation Foundation, Yonsei University, priority 2019, published 2022).

Legend:
Assay type in all cases: in vivo, C57BL/6 male mice
[1] = test system: MC38 colorectal cancer cell line; assay: Tumor size change in mice after MC38 colorectal cancer cell line injection and drug administration; conditions: subcutaneous MC-38 tumor, drug administration for 7 days; statistically proved by two-way ANOVA
Procedure: (§1) MC-38 colorectal cancer cells (5×10^5 cells) were injected subcutaneously into 7-week-old C57BL/6 male mice. Seven days after the colorectal cancer cells were injected, the average tumor volume of the subcutaneous MC-38 tumor was about 40 mm^3. The injection method of the mouse tumor as described above was equally applied to all four groups below. Afterwards, the experimental group was divided into the vehicle administration control group, SAC-1004 and anti-PD1 co-administration group, SAC-1004 single administration group, and anti-PD1 single administration group, and the experiment was performed.
(§2) Specifically, the administration was performed as follows. SAC-1004, a vascular leak inhibitor, was dissolved in DMSO in PBS, and 1 mg per kg of mouse body weight was administered daily by intravenous injection. Anti-PD1, an immune checkpoint inhibitor, was administered at the concentration of 200 ng/mouse by intraperitoneal injection 3 times a week along with 200 ng of rat igG2a. […]
(§3) In a total of 4 groups consisting of control group, SAC-1004 and anti-PD1 co-administration group, SAC-1004 single administration group, and anti-PD1 single administration group, the tumor size changes according to the drug administration for 7 days as described above in the experimental animal model were analyzed.

[2] = test system: MC38 colorectal cancer cell line; assay: Tumor weight of mice after MC38 injection and drug administration; conditions: MC38 model, 7 days; statistically proved by one-way ANOVA
Procedure: as §1, §2
as §3, with “weight of mice treated with” for “size changes according to”, “drug” for “drug administration”, “was” for “were”

[3] = Spleen size and weight of mice after MC38 injection and drug administration; conditions: MC38 model, 7 days; not statistically significant by one-way ANOVA
Procedure: as §1, §2
as §3, with “spleen” for “tumor”, “of mice treated with” for “changes according to”, “drug” for “drug administration”, “was” for “were”

[4] = test system: VE-cadherin; assay: Adherent junction expression in mouse tumor (IHC staining); conditions: drug administered for 14 days
Procedure: as §1
Specifically, the administration was performed as follows. SAC-1004, a vascular leak inhibitor, was dissolved in DMSO in PBS, and 1 mg per kg of mouse body weight was administered daily by intravenous injection. […]
In a total of 4 groups consisting of control group, SAC-1004 and anti-PD1 co-administration group, SAC-1004 single administration group, and anti-PD1 single administration group, the expression of adherent junction in the tumor of the mouse treated with the drug as described above in the experimental animal model was analyzed except that the drug was administered for 14 days by daily administration of SAC-1004 for 7 days and administration of anti-PD1 3 times a week. […]

Question: Which results are given for `COC(=O)CCC/C=C(\C)[C@H]1CCC2C3CC=C4C[C@@H](OC5C=C[C@H](OC(C)=O)[C@@H](COC(C)=O)O5)CC[C@]4(C)C3CC[C@@]21C` (stereo partly shown) [SAC-1004]?
Answer: tumor size [1]: reduced compared to that in the control group; tumor weight [2]: lower than that of the anti-PD1 single administration group mice; spleen weight [3]: higher than that of the control group mice; ratio of intratumoral VE-cadherin [4]: increased
